In general, IC50 refers to the midpoint of a concentration-inhibition curve.

For the first assay, the target named is T1, CDK5-p25 kinase (Homo sapiens, UniProt Q00535).
T1 construct: purchased Invitrogen PV4677
T1 sequence (Q00535 whole entry): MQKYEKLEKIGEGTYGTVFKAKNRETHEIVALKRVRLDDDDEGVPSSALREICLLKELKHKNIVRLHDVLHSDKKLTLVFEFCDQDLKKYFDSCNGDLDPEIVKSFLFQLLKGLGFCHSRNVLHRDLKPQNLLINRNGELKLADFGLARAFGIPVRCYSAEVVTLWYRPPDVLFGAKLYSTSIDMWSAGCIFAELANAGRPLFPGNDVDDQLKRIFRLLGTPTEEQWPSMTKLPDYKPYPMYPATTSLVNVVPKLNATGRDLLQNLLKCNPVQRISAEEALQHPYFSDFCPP
T1 sequence (Q15078 99-307 partner limits assumed): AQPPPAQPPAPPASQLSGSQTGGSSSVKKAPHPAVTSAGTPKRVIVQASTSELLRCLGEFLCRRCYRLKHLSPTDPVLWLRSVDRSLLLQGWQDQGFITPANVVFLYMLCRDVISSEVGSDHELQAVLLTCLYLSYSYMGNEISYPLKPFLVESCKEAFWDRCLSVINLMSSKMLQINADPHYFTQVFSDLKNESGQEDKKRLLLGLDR
Put plainly: CDK5-p25 kinase enzymatic assay. In kind it is biochemical. Particulars: 0.3 nM CDK5-p25, 1.5 uM peptide, 5 uM ATP; X marks bin 50 nM-99 nM; read-out: IC50 potency, 50 nM-99 nM. Here is the method:
CDK5-p25 kinase (Invitrogen PV4677) enzymatic activity was measured using electrophoretic separation and fluorescent detection to monitor phosphorylation of a fluorescently labeled histone H1-derived peptide substrate, FL29 (5-FAM-GGGPATPKKAKKL-CONH2, Caliper #760429)
First, 0.25 uL of serially diluted compound in DMSO at 100× concentration was transferred into each well of a 384-well polystyrene assay plate. To this was added 15 uL of a 1.67× enzyme solution (500 pM enzyme, 1 mM DTT (Sigma D9779), 1× reconstitution buffer with protease inhibitor (Caliper #700329 proprietary formulation)), followed by centrifugation for 1 min at 1000 rpm, and incubation for 5-15 min at room temperature to allow binding of compound to enzyme. To initiate the reaction, 10 uL of substrate/ATP mix (245 mM Hepes pH 7.5, 0.003% Brij 35, 0.004% Tween, 12.75 uM ATP, 3.75 uM FL29 peptide) were added to each well, followed by centrifugation at 1000 rpm for 1 min. The reaction was then incubated at room temperature for 30 min. Final assay conditions were: 0.3 nM CDK5-p25, 1.5 uM peptide, 5 uM ATP, 0.6 mM DTT, 1% DMSO, 98 mM HEPES pH 7.5.
After incubation, reactions were quenched by the addition of 45 uL Caliper termination solution (Caliper proprietary formula), followed by centrifugation at 1000 rpm for 1 min. Extent of reaction (percentage conversion of substrate to phosphorylated product) was then measured using the Caliper EZ II reader. Dose-response curves were created by plotting the inhibition of enzyme activity (normalized relative to vehicle treated and no ATP control reactions) as a function of the log of compound concentration. The curve was analyzed using a four parameter logistical fit to calculate IC50 values.
With `O=c1cc(Cc2ccc(-c3ccccc3)cc2)[nH]c2n[nH]c(C3CCC3)c12` [Example 3, 6-(biphenyl-4-ylmethyl)-3-cyclobutyl-2,7-dihydro-4H-pyrazolo[3,4-b]pyridin-4-one], the 50% inhibitory concentration (IC50) lay in the range of 50 to 99 nM.
Still for that read-out and setting: the result for `CC(C)(C)c1ccc(Cc2cc(=O)c3c(C4CCC4)[nH]nc3[nH]2)cc1` [Example 4, 6-(4-tert-butylbenzyl)-3-cyclobutyl-2,7-dihydro-4H-pyrazolo[3,4-b]pyridin-4-one] reads 50 to 99 nM.

The assay is the same for the next values; noted with them: 0.3 nM CDK5-p25, 1.5 uM peptide, 5 uM ATP; X marks bin 100 nM-499 nM; read-out: IC50 potency, 100 nM-499 nM.
Turning to `O=c1cc(Cc2c(F)cccc2Cl)[nH]c2n[nH]c(C3CCC3)c12` [Example 2, 6-(2-chloro-6-fluorobenzyl)-3-cyclobutyl-2,7-dihydro-4H-pyrazolo[3,4-b]pyridin-4-one], the half-maximal inhibitory concentration (IC50) is 100 to 499 nM.
Consider `O=c1cc(Cc2ccccc2-c2ccccc2)[nH]c2n[nH]c(C3CCC3)c12` [Example 5, 6-(biphenyl-2-ylmethyl)-3-cyclobutyl-2,7-dihydro-4H-pyrazolo[3,4-b]pyridin-4-one], for which the IC50 was in the range of 100 to 499 nM.
On the same count and under the same terms, the result for `O=c1cc(CC2CCCCC2)[nH]c2n[nH]c(C3CCC3)c12` [Example 7, 3-cyclobutyl-6-(cyclohexylmethyl)-2,7-dihydro-4H-pyrazolo[3,4-b]pyridin-4-one] reads 100 to 499 nM.

The assay is the same for the next values; noted with them: 0.3 nM CDK5-p25, 1.5 uM peptide, 5 uM ATP; X marks bin 500 nM-3 μM; read-out: IC50 potency, 500 nM-3 μM.
Turning to `O=c1cc(Cc2ccc3ccccc3c2)[nH]c2n[nH]c(C3CC(F)(F)C3)c12` [Example 9, 3-(3,3-difluorocyclobutyl)-6-(naphthalen-2-ylmethyl)-2,7-dihydro-4H-pyrazolo[3,4-b]pyridin-4-one], the half-inhibitory concentration (IC50) fell in the range of 500 to 3000 nM.
On the same count and under the same terms, the same measure for `O=c1cc(Cc2ccc3ccccc3c2)[nH]c2n[nH]c([C@H]3C[C@@H](O)C3)c12` [Example 11, 3-(cis-3-hydroxycyclobutyl)-6-(naphthalen-2-ylmethyl)-2,7-dihydro-4H-pyrazolo[3,4-b]pyridin-4-one]: 500 to 3000 nM.

The same assay, now with this note: 0.3 nM CDK5-p25, 1.5 uM peptide, 5 uM ATP; X marks bin <50 nM; read-out: IC50 potency, <50 nM.
As for `O=c1cc(Cc2ccc3ccccc3c2)[nH]c2n[nH]c(C3CCC3)c12` [Example 1, 3-cyclobutyl-6-(2-naphthylmethyl)-2,7-dihydro-4H-pyrazolo[3,4-b]pyridin-4-one], the 50% inhibitory concentration (IC50) is under 50 nM.
On the same count and under the same terms, the result for `O=c1cc(Cc2ccc(Cl)c(Cl)c2)[nH]c2n[nH]c(C3CCC3)c12` [Example 6, 3-cyclobutyl-6-(3,4-dichlorobenzyl)-2,7-dihydro-4H-pyrazolo[3,4-b]pyridin-4-one] reads under 50 nM; that for `O=c1cc(Cc2cc(F)cc(Cl)c2)[nH]c2n[nH]c(C3CCC3)c12` [Example 8, 6-(3-chloro-5-fluorobenzyl)-3-cyclobutyl-2,7-dihydro-4H-pyrazolo[3,4-b]pyridin-4-one], under 50 nM.
Same read-out and setting: the result for `O=c1cc(Cc2ccc3ccccc3c2)[nH]c2n[nH]c([C@H]3C[C@H](O)C3)c12` [Example 10, 3-(trans-3-hydroxycyclobutyl)-6-(naphthalen-2-ylmethyl)-2,7-dihydro-4H-pyrazolo[3,4-b]pyridin-4-one] reads under 50 nM; that for `O=C1CC(c2[nH]nc3[nH]c(Cc4ccc5ccccc5c4)cc(=O)c23)C1` [Example 12, 6-(naphthalen-2-ylmethyl)-3-(3-oxocyclobutyl)-2,7-dihydro-4H-pyrazolo[3,4-b]pyridin-4-one], under 50 nM.

(Values after US20120220624A1, “PYRAZOLO [3,4-B] PYRIDIN-4-ONE KINASE INHIBITORS” (priority 2009, published 2012).)
